Measured values taken from patent US6770740B1, “Crosslinked DNA condesate compositions and gene delivery methods” (The Regents of the University of Michigan, priority 1999, dated 2004).
Values belong to the molecule of their own block, whether it stands above or below them. Where a SMILES comes first, the peptide text is derived from it.

Columns and labels:
glutathione reductase = target: T1, glutathione reductase (Homo sapiens, UniProt P00390); conditions: challenged with glutathione reductase; Drummer et al., 1987; cited from earlier work
T1 sequence (P00390 44-522): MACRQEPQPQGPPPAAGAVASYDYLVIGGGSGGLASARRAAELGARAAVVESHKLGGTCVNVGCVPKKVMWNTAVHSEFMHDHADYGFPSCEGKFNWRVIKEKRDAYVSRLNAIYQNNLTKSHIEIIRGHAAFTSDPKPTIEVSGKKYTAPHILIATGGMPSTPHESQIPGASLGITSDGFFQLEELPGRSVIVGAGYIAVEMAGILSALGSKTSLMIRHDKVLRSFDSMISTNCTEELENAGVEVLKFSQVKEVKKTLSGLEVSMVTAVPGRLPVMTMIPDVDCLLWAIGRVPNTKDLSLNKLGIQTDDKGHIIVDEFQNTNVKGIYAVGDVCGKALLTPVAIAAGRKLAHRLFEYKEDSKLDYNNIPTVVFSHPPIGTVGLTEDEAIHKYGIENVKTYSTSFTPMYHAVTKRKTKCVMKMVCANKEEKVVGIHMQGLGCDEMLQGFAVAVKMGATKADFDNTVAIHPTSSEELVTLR

[1] = Shear stress stability of cross-linked DNA condensates (salt sonication), Example 5; assay type: physicochemical
Method: Peptide DNA condensates (200 μl of 50 μg/ml) were formed and incubated at RT for 30 min and then combined with 0 to 200 μl of 5 M sodium chloride and normalized to 400 μl with HBM to achieve a final sodium chloride concentration of 0, 0.2, 0.4, 0.8, 1.0, 1.5, 2.0, and 2.5 M. Each sample was sonicated for 30 sec with a 100 W Microson™ XL-2000 ultrasonic probe homogenizer (Kontes, Vineland N.J.) with a vibrational amplitude of 6 to fragment uncondensed DNA (Adami et al., 1998). DNA condensates were digested with 30 μg of trypsin for 12 h at 37° C. then electrophoresed on an agarose gel and visualized by ethidium bromide staining.

plasmid DNA [2] = test: Kinetics of peptide cross-linking on DNA (SYBR-Gold fluorescence), Example 5; assay type: physicochemical; conditions: charge ratio 2:1
Method: The kinetics of cross-linking within peptide DNA condensates was studied indirectly by monitoring the displacement of SYBR-Gold™ intercalator dye from DNA condensates as a function of time. Peptide DNA condensates were prepared (200 μl of 50 μg/ml) at a peptide stoichiometry of 0.4 nmol per μg of DNA. Immediately after mixing peptide and DNA, a 10 μl aliquot was combined with 990 μl of SYBR-Gold™ (1X) and the fluorescence intensity (Ex 495 nm, Em 537 nm) was continuously monitored for 30 min.
The rate of cross-linking was also examined as a function of peptide concentration. The stoichiometry of peptide IV was increased from 0.4 to 1.2 nmol per μg of DNA and the rate of declining fluorescence intensity was determined as described above.

[3] = Kinetics of peptide oxidation (disulfide bond formation) in solution by ES-MS; assay type: physicochemical; conditions: pH 7.5, free in solution
Method: The kinetics of disulfide bond formation in solution was monitored by […]. […] Single ion monitoring (SIM) scans were taken at 20 sec intervals over 2 h while monitoring the disappearance of the M+2H^+ parent ion (1258 amu) and formation of the M+2H^+ ion of the oxidized species (1256 amu).

[4] = QELS particle size and zeta potential of cross-linking peptide DNA condensates, Example 5; assay type: physicochemical
Method: The particle size of each peptide DNA condensate was determined by quasielastic light scattering (QELS) at a scatter angle of both 15° and 90° on a Brookhaven ZetaPlus™ particle sizer. Condensates were prepared at a DNA concentration of 50 μg/ml in 400 μl HBM at a stoichiometry of 0.4 nmol of peptide per μg of DNA corresponding to a charge ratio of approximately 2:1 for each. The mean diameter and population distribution were computed from the diffusion coefficient using a unimodal cummulant analysis supplied by the manufacturer.
The particle size and zeta peptide IV DNA condensates were determined by titrating 7.5 to 37.5 nmol of peptide with 75 μg of DNA in 1.5 ml of HBM to produce 50 μg/ml DNA condensates with charge ratio of 0.5-2.5. The zeta potential was averaged from 10 determines.

CHO cells = test: Luciferase gene expression in CHO cells, Example 6; assay type: cell-based; conditions: 80 μM chloroquine
[5] = QELS particle size and zeta potential of peptide DNA condensates, Example 6; assay type: physicochemical; conditions: charge ratio 4:1, 50 μg/ml DNA in HBM; for Particle Size (nm): 90°, average and SD of three, No particles formed; for Zeta Potential (mV): average and SD of ten
Method: The particle size and zeta potential of peptide DNA condensates were determined by quasielastic light scattering (QELS) using a Brookhave ZetaPlus™. Particle size analysis was performed in triplicate at a DNA concentration of 50 μg/ml in HBM at a charge ratio of 4:1 and a scattering angle of 90°. Data analysis utilized a multimodal volume distribution option included with the instrument. Zeta potential was also determined using 50 μg/ml peptide DNA condensates prepared at a 4:1 charge ratio in HBM. The reported zeta potential was averaged from ten determinations.

plasmid DNA [6] = test: Thiazole orange displacement titration of peptide binding to DNA, Example 6; conditions: titration across charge ratios 0.25-8
Method: Peptide DNA condensates were prepared by combining 50 μg of DNA in 500 μl of Hepes buffered mannitol (HBM) (5 w/v% mannitol, 5 mM Hepes, pH 7.5) with […] of peptide in 500 μl of HBM while vortexing to form peptide DNA condensates with a calculated primary amine to phosphate charge ratio between 0.25 and 8.0 (NH4^+:PO4). The condensates were allowed to cross-link for 30 min prior to performing physical measurements. The binding of each peptide to DNA was assayed by combining peptide DNA condensates (50 μl) with 950 μl of HBM containing 0.1 μM thiazole orange. The fluorescence of the intercalated dye was measured using an LS50B fluorometer (Perkin Elmer, UK) by exciting at 500 nm while monitoring emission at 530 nm with the slit width set at 15 and 20 nm, respectively. Fluorescence blanks were substracted from all values before data analysis.

plasmid DNA [7] = test: Kinetics of peptide cross-linking on DNA (SYBR-Gold), Example 6; assay type: physicochemical; conditions: charge ratio 4:1
Method: The kinetics of disulfide bond formation of peptides bound to DNA was analyzed indirectly by monitoring the displacement of SYBR-Gold™ from DNA condensates. Peptide DNA condensates were formed by combining 20 μg of DNA in 500 μl of HBM containing 1× SYBR-Gold™ with 500 μl (26-52 nmol) of peptide in HBM containing 1 × SYBR-Gold to achieve a charge ratio of 4:1 (NH4^+:PO4). The fluorescence intensity (Ex 495 nm, Em 600 nm) was continuously monitored for 30 min to determine kinetics of cross-linking.

HepG2 cells = test: Luciferase gene expression in HepG2 cells, Example 6; assay type: cell-based; conditions: HepG2, absence of chloroquine
Method: HepG2 cells (1.5×10^5) were plated on 6×35 mm wells and grown to 50% confluencey in MEM supplemented with 10% FBS, penicillin and streptomycin (100 U/ml), sodium pyruvate (100 mM), and L-glutamine (2 mM). Transfections were performed in MEM (2 ml per 35 mm well) with 2% FBS with and without 80 μM chloroquine. Peptide DNA condensates (10 μg of DNA of 0.2 ml HBM) were added dropwise to triplicate wells. After a 5 h incubation at 37° C., the medium was replaced with MEM supplemented with 10% FBS. After 24 h, cells were washed with ice-cold phosphate buffered saline (calcium and magnesium free) and then treated with 0.5 ml of ice-cold lysis buffer (25 mM) Tris chloride pH 7.8, 1 mM EDTA, 8 mM magnesium chloride, 1% Triton X-100, 1 mM DTT) for 10 min. The cell lysates were scraped, transferred to 1.5 ml microcentrifuge tube, and centrifuged for 7 min at 13,000 g at 4° C. to pellet debris.
Lysis buffer (300 μl), sodium-ATP (4 μl of a 180 mM solution, pH 7, 4° C.) and cell lysate (100 μl, 4° C.) were combined in a test tube, briefly mixed and immediately placed in the luminometer. Luciferase relative light units (RLU) were recorded on a Lumat™ LB 9501 (Berthoid Systems, Germany) with 10 sec integration after automatic injection of 100 μl of 0.5 mM D-luciferin (prepared fresh in lysis buffer without DTT). The RLU were converted into fmol using a standard curve generated by adding a known amount of luciferase (0.01 to 100 fmols with specific activity of 2.5 nU/fmol) to 35 mm wells containing 50% confluent cells and lysis buffer. Protein concentrations were measured by Bradford assay using bovine serum albumin as a standard (Bradford, 1976). […]
LipofectAce™ (Gibco BRL, 1:2.5 w/w dimethyl dioctadecylammonium bromide and dioleoyl phosphatidylethanolamine) was used to mediate gene transaction according to the manufacturer's instructions. […] The cells were incubated for a total of 24 h, harvested and analyzed for luciferase as described above.

[8] = Shear stress stability (salt sonication assay), Example 6; assay type: physicochemical; conditions: 30 sec sonication
Method: The relative stability of peptide DNA condensates were examined using a salt sonication assay (Adami and Rice, 1999). Peptide DNA condensates (200 μl of 50 μg/ml) were formed as described above, incubated at RT for 30 min and then combined with 0-200 μl of 5 m […] and normalized to 400 μl with HBM to achieve a final sodium chloride concentration of 0, 0.2, 0.4, 0.8, 1.0, 1.5, 2.0 and 2.5 M. Each sample was sonicated for 30 sec with a 100 W Microson™ XL-2000 ultrasonic probe homogenizer (Kontes, Vineland N.J.) with a vibrational amplitude of 5 fragment uncondensed DNA. DNA condensates were digested with 30 μg to trypsin for 12 h at 37° C., electrophoresed on a 1% agarose gel electrophoresed in TEA buffer for 2 h, then visualized by ethidium bromide staining and destaining prior to photography on a transilluminator.

COS 7 cells = test: Luciferase gene expression in COS 7 cells, Example 6; assay type: cell-based; conditions: COS 7, 80 μM chloroquine

Molecule: CC(C)(SSC(C)(C)C(N)C(=O)O)C(N)C(=O)O (stereo not shown) [Penicillamine disulfide]
stability relative to cystine (glutathione reductase): approximately 26 fold

Molecule: NCCCC[C@H](NC(=O)[C@H](CCCCN)NC(=O)[C@H](CCCCN)NC(=O)[C@H](CCCCN)NC(=O)[C@H](CS)NC(=O)[C@H](CCCCN)NC(=O)[C@H](CCCCN)NC(=O)[C@H](CCCCN)NC(=O)[C@H](CS)NC(=O)[C@H](CCCCN)NC(=O)[C@H](CCCCN)NC(=O)[C@H](CCCCN)NC(=O)[C@H](CS)NC(=O)[C@H](CCCCN)NC(=O)[C@H](CCCCN)NC(=O)[C@H](CCCCN)NC(=O)[C@H](CCCCN)NC(=O)[C@H](Cc1c[nH]c2ccccc12)NC(=O)[C@@H](N)CS)C(=O)N[C@@H](CS)C(=O)O [V, Cys-Trp-Lys4-Cys-Lys3-Cys-Lys3-Cys-Lys4-Cys] (H-CWKKKKCKKKCKKKCKKKKC-OH; N-terminus and C-terminus assumed)
sodium chloride concentration of DNA condensate stability after reduction ([1]; DNA condensates reduced with TCEP): 0.4 M
sodium chloride concentration above which DNA was not protected, pre-oxidized peptide ([1]; peptide fully oxidized prior to making DNA condensates): 0.4 M
time of inter-peptide cross-linking on DNA (plasmid DNA [2]): less than 30 min
half-life at 100 µM ([3]; methanol/ammonium acetate solution, read-out: t½ of disappearance of the parent ion (intra-molecular disulfide formation)): ~10 min
time to complete disappearance of the parent ion [3]: ≤ 25 min
Particle Size Mean Diameter, Oxidized, 15° ([4]; HBM after 2 h incubation, 50 μg/ml DNA, 0.4 nmol peptide per μg DNA, scattering angle 15°): 41 nm
Particle Size Mean Diameter, Oxidized, 90° ([4]; HBM after 2 h incubation, 50 μg/ml DNA, 0.4 nmol peptide per μg DNA, scattering angle 90°): 57 nm
Particle Size Mean Diameter, Saline ([4]; HBM with added saline (0.15 M) after 15 min): 93 nm
Particle Size Mean Diameter, Reduced ([4]; following addition of TCEP (1 mM)): 171 nm

charge ratio (NH4+:PO4) needed to condense DNA (thiazole orange fluorescence minimum) (plasmid DNA [6]): 3
Molecule: Cys-(Lys)4-Cys (CKKKKC) [Peptide 5]
gene expression relative to peptide 3, 6 and 7 (CHO cells): three-orders of magnitude lower
Particle Size (nm) [5]: 38 ± 10 nm

Molecule: Cys-(Lys)4-His-(Lys)3-Cys (CKKKKHKKKC) [Peptide 12]
Particle Size (nm) [5]: 87 ± 20 nm
Zeta Potential (mV) [5]: 30 ± 2 mV
time to completion of cross-linking on DNA (SYBR-Gold asymptote) (plasmid DNA [7]): less than 10 min
higher gene expression compared to peptide 7 DNA condensates (HepG2 cells): 3 fold

charge ratio (NH4+:PO4) needed to condense DNA (thiazole orange fluorescence minimum) (plasmid DNA [6]): 2
Molecule: Cys-(Lys)8-Cys (CKKKKKKKKC) [Peptide 7]
Particle Size (nm) [5]: 53 ± 16 nm
Zeta Potential (mV) [5]: 26 ± 2 mV
sodium chloride concentration at which DNA condensates dissociate [8]: 0.8 to 1 M
lower gene expression relative to peptide 3, 5 and 6 DNA condensates (COS 7 cells): 5 fold
